Data as given in PubChem BioAssay AID328 (DTP/NCI, 2004).
Where “and” joins values, the source holds several entries; their conditions need not be identical. Identical values can stand only once. Toxic doses and inconclusive results are not listed.

Tested on: BDF1 mice, P388 leukemia ip, median survival T/C
Assay: NCI In Vivo Anticancer Drug Screen. Data for tumor model P388 Leukemia (intraperitoneal) in B6D2F1 (BDF1) mice
Conditions: endpoint: median survival time, higher = longer survival
Outline: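 Antitumour effect was judged in vivo: survival in drug-treated mice, normalised to that of vehicle-dosed controls, gives the reported T/C.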

[1] = dose: 50.0 mg/kg/injection, schedule: Q01DX009 (ip), vehicle: Klucel (hydroxypropylcellulose) (HPC)
[2] = dose: 100.0 mg/kg/injection, schedule: Q01DX009 (ip), vehicle: Klucel (hydroxypropylcellulose) (HPC)
[3] = dose: 100.0 mg/kg/injection, schedule: Q01DX009 (ip), vehicle: saline with Tween-80
[4] = dose: 200.0 mg/kg/injection, schedule: Q01DX009 (ip), vehicle: saline with Tween-80

Structure (SMILES): CN=C(N)c1ccc(N=C(N)c2ccc(N=C(N)c3ccc(N=C(O)c4cccc(C(O)=Nc5ccc(C(N)=Nc6ccc(C(N)=Nc7ccc(C(N)=NC)cc7)cc6)cc5)c4)cc3)cc2)cc1
- T/C (dose: 4.0 mg/kg/injection, schedule: Q01DX009 (ip), vehicle: saline with Tween-80): 154 % of control
- T/C (dose: 4.0 mg/kg/injection, schedule: Q04DX003 (ip), vehicle: saline with Tween-80): 123 % of control
- T/C (dose: 6.0 mg/kg/injection, schedule: Q04DX003 (ip), vehicle: saline with Tween-80): 150 % of control
- T/C (dose: 8.0 mg/kg/injection, schedule: Q01DX009 (ip), vehicle: saline with Tween-80): 177 % of control
- T/C (dose: 9.0 mg/kg/injection, schedule: Q04DX003 (ip), vehicle: saline with Tween-80): 168 % of control
- T/C (dose: 11.0 mg/kg/injection, schedule: Q01DX009 (ip), vehicle: saline with Tween-80): 200 % of control
- T/C (dose: 12.0 mg/kg/injection, schedule: Q01DX009 (ip), vehicle: saline with Tween-80): 166 % of control
- T/C (dose: 14.0 mg/kg/injection, schedule: Q04DX003 (ip), vehicle: saline with Tween-80): 168 % of control
- T/C (dose: 16.0 mg/kg/injection, schedule: Q01DX009 (ip), vehicle: saline with Tween-80): 181 % of control and 183 % of control
- T/C (dose: 16.5 mg/kg/injection, schedule: Q01DX009 (ip), vehicle: saline with Tween-80): 227 % of control
- T/C (dose: 22.0 mg/kg/injection, schedule: Q04DX003 (ip), vehicle: saline with Tween-80): 159 % of control and 177 % of control and 204 % of control
- T/C (dose: 33.0 mg/kg/injection, schedule: Q04DX003 (ip), vehicle: saline with Tween-80): 250 % of control and 177 % of control
- T/C (dose: 37.5 mg/kg/injection, schedule: Q01DX009 (ip), vehicle: saline with Tween-80): 233 % of control and 194 % of control
- T/C (dose: 50.0 mg/kg/injection, schedule: Q04DX003 (ip), vehicle: saline with Tween-80): 250 % of control and 190 % of control
- T/C (dose: 75.0 mg/kg/injection, schedule: Q04DX003 (ip), vehicle: saline with Tween-80): 231 % of control and 200 % of control

Structure (SMILES): CCC(C)(OC(C)=O)C(=O)OC1C(=O)OC2CC3C(C)=CC(=O)C(O)C3(C)C3C(O)C(O)C4(C)OCC23C14 (stereo not drawn)
- T/C (dose: 0.01 mg/kg/injection, schedule: Q01DX009 (ip), vehicle: saline + alcohol): 104 % of control
- T/C (dose: 0.06 mg/kg/injection, schedule: Q01DX009 (ip), vehicle: saline + alcohol): 180 % of control
- T/C (dose: 0.1 mg/kg/injection, schedule: Q01DX009 (ip), vehicle: saline + alcohol): 161 % of control
- T/C (dose: 0.12 mg/kg/injection, schedule: Q01DX009 (ip), vehicle: saline + alcohol): 109 % of control
- T/C (dose: 0.38 mg/kg/injection, schedule: Q01DX009 (ip), vehicle: saline + alcohol): 168 % of control
- T/C (dose: 0.75 mg/kg/injection, schedule: Q01DX009 (ip), vehicle: saline + alcohol): 161 % of control
- T/C (dose: 2.0 mg/kg/injection, schedule: Q01DX009 (ip), vehicle: saline + alcohol): 173 % of control
- T/C (dose: 3.0 mg/kg/injection, schedule: Q01DX009 (ip), vehicle: saline + alcohol): 171 % of control

Structure (SMILES): O=C(CS)OCCOC(=O)CS
- T/C (dose: 25.0 mg/kg/injection, schedule: Q01DX009 (ip), vehicle: Klucel (hydroxypropylcellulose) (HPC)): 104 % of control
- T/C (dose: 25.0 mg/kg/injection, schedule: Q04DX003 (ip), vehicle: saline): 109 % of control
- T/C [1]: 100 % of control
- T/C (dose: 50.0 mg/kg/injection, schedule: Q04DX003 (ip), vehicle: saline): 104 % of control
- T/C [2]: 95 % of control
- T/C (dose: 100.0 mg/kg/injection, schedule: Q04DX003 (ip), vehicle: saline): 95 % of control

Structure (SMILES): COC(=O)C(CCC1CCCCN1)(c1ccccc1)c1ccccc1 (stereo not drawn)
- T/C (dose: 66.0 mg/kg/injection, schedule: Q04DX003 (ip), vehicle: saline with Tween-80): 123 % of control
- T/C (dose: 100.0 mg/kg/injection, schedule: Q01DX009 (ip), vehicle: saline): 90 % of control

Structure (SMILES): CCOP(=O)(O)OCC.[Al]
- T/C (dose: 50.0 mg/kg/injection, schedule: Q01DX009 (ip), vehicle: saline with Tween-80): 100 % of control
- T/C [3]: 103 % of control
- T/C [4]: 103 % of control

Structure (SMILES): COC(=O)C(C)C(C)=O (stereo not drawn)
- T/C (dose: 100.0 mg/kg/injection, schedule: Q04DX003 (sc), vehicle: olive oil, sesame oil, peanut oil): 100 % of control
- T/C (dose: 200.0 mg/kg/injection, schedule: Q04DX003 (sc), vehicle: olive oil, sesame oil, peanut oil): 104 % of control
- T/C (dose: 400.0 mg/kg/injection, schedule: Q04DX003 (sc), vehicle: olive oil, sesame oil, peanut oil): 100 % of control

Structure (SMILES): C/C(=N\N)c1ccc(Cl)cc1
- T/C (dose: 6.25 mg/kg/injection, schedule: Q01DX009 (ip), vehicle: saline with Tween-80): 100 % of control
- T/C (dose: 12.5 mg/kg/injection, schedule: Q01DX009 (ip), vehicle: saline with Tween-80): 104 % of control
- T/C (dose: 25.0 mg/kg/injection, schedule: Q01DX009 (ip), vehicle: saline with Tween-80): 95 % of control

Structure (SMILES): O=C1/C(=C/c2ccccc2)CCCC1/C=C/c1ccccc1 (stereo not drawn)
- T/C (dose: 100.0 mg/kg/injection, schedule: Q04DX003 (ip), vehicle: Klucel (hydroxypropylcellulose) (HPC)): 100 % of control
- T/C (dose: 200.0 mg/kg/injection, schedule: Q04DX003 (ip), vehicle: Klucel (hydroxypropylcellulose) (HPC)): 104 % of control
- T/C (dose: 400.0 mg/kg/injection, schedule: Q04DX003 (ip), vehicle: Klucel (hydroxypropylcellulose) (HPC)): 104 % of control

Structure (SMILES): O=S1(=O)C=C(Cl)C2C3CC(C(Cl)C3Cl)C21 (stereo not drawn)
- T/C (dose: 7.5 mg/kg/injection, schedule: Q01DX009 (ip), vehicle: saline with Tween-80): 100 % of control
- T/C (dose: 15.0 mg/kg/injection, schedule: Q01DX009 (ip), vehicle: saline with Tween-80): 113 % of control
- T/C (dose: 30.0 mg/kg/injection, schedule: Q01DX009 (ip), vehicle: saline with Tween-80): 104 % of control

Structure (SMILES): O=S(=O)(O)O.O=S(=O)([O-])[O-].O=[N+]([O-])O.[Co+3].[Co+3].[NH2-].[NH2-].[NH2-].[NH2-].[NH2-].[NH2-].[NH2-].[NH2-].[NH2-]
- T/C (dose: 6.25 mg/kg/injection, schedule: Q01DX009 (ip), vehicle: water): 97 % of control
- T/C (dose: 12.5 mg/kg/injection, schedule: Q01DX009 (ip), vehicle: water): 124 % of control

Structure (SMILES): NC(=O)N/N=C1/CCCC(C(=O)O)C1 (stereo not drawn)
- T/C (dose: 50.0 mg/kg/injection, schedule: Q01DX001 (ip), vehicle: Klucel (hydroxypropylcellulose) (HPC)): 91 % of control
- T/C (dose: 100.0 mg/kg/injection, schedule: Q01DX001 (ip), vehicle: Klucel (hydroxypropylcellulose) (HPC)): 116 % of control
- T/C (dose: 200.0 mg/kg/injection, schedule: Q01DX001 (ip), vehicle: Klucel (hydroxypropylcellulose) (HPC)): 91 % of control
- T/C (dose: 400.0 mg/kg/injection, schedule: Q01DX001 (ip), vehicle: Klucel (hydroxypropylcellulose) (HPC)): 95 % of control

Structure (SMILES): O=S1(=O)CCN(C2CCCCCC2)CC1
- T/C [1]: 106 % of control
- T/C [2]: 111 % of control
- T/C (dose: 200.0 mg/kg/injection, schedule: Q01DX009 (ip), vehicle: Klucel (hydroxypropylcellulose) (HPC)): 109 % of control

Structure (SMILES): CCCCOB(/C=C/Sc1ccccc1)OCCCC
- T/C [3]: 120 % of control
- T/C (dose: 100.0 mg/kg/injection, schedule: Q04DX003 (ip), vehicle: saline with Tween-80): 115 % of control
- T/C (dose: 132.0 mg/kg/injection, schedule: Q01DX009 (ip), vehicle: saline with Tween-80): 118 % of control
- T/C (dose: 200.0 mg/kg/injection, schedule: Q04DX003 (ip), vehicle: saline with Tween-80): 120 % of control
- T/C (dose: 300.0 mg/kg/injection, schedule: Q01DX009 (ip), vehicle: saline with Tween-80): 122 % of control
- T/C (dose: 400.0 mg/kg/injection, schedule: Q04DX003 (ip), vehicle: saline with Tween-80): 110 % of control

Structure (SMILES): CCC(c1ccc(OC)cc1)C(NCC(=O)N/N=C/c1ccccc1[N+](=O)[O-])c1ccc(OC)cc1 (stereo not drawn)
- T/C (dose: 12.5 mg/kg/injection, schedule: Q01DX001 (ip), vehicle: saline with Tween-80): 91 % of control

Structure (SMILES): COc1ccc(C2=CC(=O)C(c3ccc(OC)cc3)=CC2=O)cc1
- T/C (dose: 5.0 mg/kg/injection, schedule: Q01DX009 (ip), vehicle: gum acacia): 87 % of control
- T/C (dose: 20.0 mg/kg/injection, schedule: Q01DX009 (ip), vehicle: gum acacia): 91 % of control
- T/C (dose: 20.0 mg/kg/injection, schedule: Q04DX003 (ip), vehicle: gum acacia): 100 % of control
- T/C (dose: 40.0 mg/kg/injection, schedule: Q01DX009 (ip), vehicle: gum acacia): 95 % of control
- T/C (dose: 40.0 mg/kg/injection, schedule: Q04DX003 (ip), vehicle: gum acacia): 90 % of control
- T/C (dose: 80.0 mg/kg/injection, schedule: Q01DX009 (ip), vehicle: gum acacia): 91 % of control
- T/C (dose: 80.0 mg/kg/injection, schedule: Q04DX003 (ip), vehicle: gum acacia): 95 % of control

Structure (SMILES): CCN1C[C@]2(COC)[C@H](O)C[C@H](OC)[C@]34C1[C@H]([C@H](OC)[C@H]23)[C@]1(OC(C)=O)[C@H]2[C@@H](OC(=O)c3ccccc3)[C@](O)(C[C@H]24)[C@@H](OC)[C@@H]1O
- T/C (dose: 0.13 mg/kg/injection, schedule: Q01DX009 (ip), vehicle: Klucel (hydroxypropylcellulose) (HPC)): 93 % of control
- T/C (dose: 0.25 mg/kg/injection, schedule: Q01DX009 (ip), vehicle: Klucel (hydroxypropylcellulose) (HPC)): 91 % of control

Structure (SMILES): CCOC(=O)C(=O)CC(=O)/C=C/c1ccccc1
- T/C [3]: 96 % of control
- T/C [4]: 107 % of control
